Test results from patent US20090081212A1, “USE AND TARGETING OF CD98 LIGHT-CHAIN PROTEINS IN THERAPIES FOR THYROID HORMONE DISORDERS” (The Government of the U.S.A., as Represented by the …, priority 2000, published 2009).
Each block holds one compound with its values, some of them ahead of it.

Tests used:
[1] = test system: T3-dependent activation of luciferase activity; test: Thyroid-responsive luciferase reporter (TRE) in oocytes expressing 4F2hc-IU12; type: cell-based, Xenopus laevis; conditions: 5 mM BCH, 10 nM T3, 24 h; preliminary data from one batch of oocytes
Procedure: FIG. 6. […] Ratio of luminescent counts for each oocyte type compared to thyroid-responsive luciferase (TRE)-only injected oocytes. Data shown for n=4 batches (each 7-9 oocytes). […] 4/I/R/T—4F2hc/IU12/RXRα/TRβ co-injected oocytes. RXRα/TRβ (heterodimers of RXR, or 9-cis retinoic acid receptor, and TR)— nuclear receptors for TH; *, significant change in luciferase activity compared to TRE-only injected oocytes (p<0.05). […] All incubations were performed over a 24-hour time period.
Overexpression of the 4F2hc-IU12 heterodimer in oocytes produced a functional activation of System L transporter activity.

[2] = test system: BeWo placental choriocarcinoma cells; test: Nuclear uptake of [125I]T3 in BeWo cells; type: cell-based, human
[3] = test system: T3-dependent transcriptional activation of a luciferase reporter in BeWo cells; test: T3-induced luciferase reporter activity in BeWo cells; type: cell-based, human; conditions: 24 h exposure
Procedure: FIG. 7. […] Infected cells were exposed to experimental conditions for 24 h prior to assay of luciferase activity.

4F2hc-IU12 heterodimers = test: Thyroid hormone and amino acid transport by 4F2hc-IU12 heterodimers expressed in Xenopus oocytes (radiotracer uptake and its inhibition); type: cell-based, Xenopus laevis; conditions: for inhibition of 4F2hc-IU12 induced [3H]tryptophan uptake, in words: 1 μM tryptophan tracer, inhibitors 10 μM T4, 5 mM BCH, increasing unlabelled T3 or tryptophan; for inhibition of 4F2hc-IU12 induced 0.1 μM TH (T3) uptake, in words: inhibitors 10 μM T3/T4, 5 mM BCH, 10 mM tryptophan, data shown for T3 only; for Vmax of 4F2hc-IU12 induced transport / Km / uptake of [3H]phenylalanine and [3H]tryptophan: 4F2hc-IU12 injected oocytes; for Vmax of 4F2hc-IU12 induced transport / Km: 4 days post-injection, TH 0.05-10 μM, 60 min uptake; for Km: read-out: apparent Km of 4F2hc-IU12 induced transport; for uptake of [3H]phenylalanine and [3H]tryptophan: 50 μM amino acid, preliminary experiments
Source text: Xenopus laevis toads were purchased from the South African Xenopus Facility. Chemicals were obtained from Sigma (UK) with the exception of Collagenase A (Boehringer, UK) and Ultraspec water (Ambion, UK). Radiotracers were purchased from NEN (UK). cDNAs encoding IU12 (2.3 Kb EcoRI/ApaI fragment from pBluescriptSK-IU12) (Liang et al. 1997, Cell Res 7: 179-193) and human 4F2hc (1.85 Kb Ecor1/BamH1 fragment from pSP65-4F2) (Teixeira et al. 1987, J Biol Chem 262: 9574-9580) were subcloned into the multiple-cloning region of pSG5 (an SV-40 driven expression plasmid).
(§1) Oocytes were isolated by collagenase treatment (Peter et al. 1996, Biochem J 318: 915-922) of ovarian tissue obtained from mature female Xenopus laevis toads (South African Xenopus Facility). Defolliculated, stage V-V1 (prophase-arrested) oocytes were selected and maintained at 18° C. in Modified Barth's Medium (MBM) containing (in mM): 88 NaCl, 1 KCL, 2.4 NaHCO3, 0.82 MgSO4.7H2O, 0.66 NaNO3, 0.75 CaCl2x2H2O, 5.0 HEPES, pH 7.6 with Tris base, 10 mg/liter gentamycin sulphate. For DNA injection, oocytes were transferred into individual wells of Tetraski plates pre-filled with MBM and centrifuged at 500 g for 10 minutes at 18° C., which causes migration of the nucleus to the cell surface and facilitates nuclear injection (Mertz & Gurdon 1977, PNAS 395: 288-291). The visible nucleus of each oocyte was injected with 2 ng DNA in 15 nl Ultraspec water using a pneumatic delivery system (Peter et al. 1996, Biochem J 318: 915-922). For co-injection studies, 2 ng of both DNAs (i.e. 4F2hc/IU12) were injected. Nuclei of control oocytes were injected with Ultraspec water. Oocytes were incubated in MBM at 18° C. for 4 days to allow expression of injected DNA before experimentation.
(§2) All experiments were carried out at 22° C. using Na^+-free transport buffer (unless otherwise stated) containing 100 mM tetramethylammonium chloride (TMACl), 2 mM KCl; 1 mM CaCl2; 1 mM MgCl2; 10 mM HEPES, pH 7.5 with Tris). Radiolabelled amino acid uptake (3H-phenylalanine or ^3H-tryptophan over 30 min) was also measured (Peter et al. 1996, Biochem J 318: 915-922). BCH (5 mM) was used as a specific inhibitor of amino acid transport System L.
Data are expressed as mean values±standard error of the mean (S.E.M; n=number of observations). Experimental measurements in each batch of oocytes were made on 7-11 individual oocytes. Differences between mean values were assessed using Students unpaired t-test, with significance assigned at p<0.05.

water-injected oocytes = test: Basal radiotracer uptake in control (water-injected) Xenopus oocytes; type: cell-based, Xenopus laevis; conditions: for uptake of [3H]phenylalanine and [3H]tryptophan: 50 μM amino acid, water-injected cells
Procedure: as §1, §2

[4] = biological target: human 4F2 heavy-chain (4F2hc) glycoprotein (human) (UniProt P08195)

effect on T3-dependent activation of luciferase activity in oocytes expressing 4F2hc-IU12 [1]: blocked
Compound: NC1(C(=O)O)CC2CCC1C2 (stereo not shown) [BCH, 2-endoamino-bicycloheptane-2-carboxylic acid]
effect on nuclear uptake of [125I]T3 [2]: inhibit
effect on T3-dependent transcriptional activation of a luciferase reporter [3]: inhibit
inhibition of 4F2hc-IU12 induced [3H]tryptophan uptake, in words (4F2hc-IU12 heterodimers): inhibited
inhibition of 4F2hc-IU12 induced 0.1 μM TH (T3) uptake, in words (4F2hc-IU12 heterodimers): significantly inhibited

Compound: N[C@@H](Cc1cc(I)c(Oc2ccc(O)c(I)c2)c(I)c1)C(=O)O [T3, tri-iodothyronine]
control T3 uptake (absence of inhibitor) (water-injected oocytes; 0.1 μM T3, water-injected oocytes): 22±3 fmol/oocyte.h

Km (4F2hc-IU12 heterodimers): 6.3 µM
Compound: N[C@@H](Cc1cc(I)c(Oc2cc(I)c(O)c(I)c2)c(I)c1)C(=O)O [T4, thyroxine]
average increase in uptake over control (water- or IU12-injected oocytes) (4F2hc-IU12 heterodimers; 0.1 μM TH, n=5 batches of oocytes): 2.1±0.5 times
inhibition of 4F2hc-IU12 induced [3H]tryptophan uptake, in words (4F2hc-IU12 heterodimers): has not achieved statistical significance
Vmax of 4F2hc-IU12 induced transport (4F2hc-IU12 heterodimers): 2.0±0.6 pmol/oocyte.h
inhibition of 4F2hc-IU12 induced 0.1 μM TH (T3) uptake, in words (4F2hc-IU12 heterodimers): mutual cross-inhibition

Compound: O=C(O)Cc1cc(I)c(Oc2ccc(O)c(I)c2)c(I)c1 [TRIAC, triodothyroacetic acid]
inhibition of T3 uptake, in words (water-injected oocytes; water-injected oocytes): did not inhibit
inhibition of tryptophan uptake, in words (water-injected oocytes; water-injected oocytes): did not inhibit

Compound: N[C@@H](Cc1ccccc1)C(=O)O [phenylalanine]
uptake of [3H]phenylalanine and [3H]tryptophan (water-injected oocytes): 10 pmol/oocyte.h
uptake of [3H]phenylalanine and [3H]tryptophan (4F2hc-IU12 heterodimers): 120 pmol/oocyte.h

Compound: NC(Cc1ccc(Oc2cc(I)c(O)c(I)c2)c(I)c1)C(=O)O (stereo not shown) [rT3, reverse tri-iodothyronine]
inhibition of induced 0.1 μM T3 uptake (4F2hc-IU12 heterodimers; inhibitor 10 μM, n=3 preparations): 41±4%

Compound: N[C@@H](Cc1c[nH]c2ccccc12)C(=O)O [tryptophan]
effect on nuclear uptake of [125I]T3 [2]: inhibit
effect on T3-dependent transcriptional activation of a luciferase reporter [3]: inhibit
control tryptophan uptake (absence of inhibitor) (water-injected oocytes; 1 μM tryptophan, water-injected oocytes): 2.1±0.1 pmol/oocyte.h
uptake of [3H]phenylalanine and [3H]tryptophan (water-injected oocytes): 10 pmol/oocyte.h
inhibition of 4F2hc-IU12 induced [3H]tryptophan uptake, in words (4F2hc-IU12 heterodimers): concentration-dependent inhibition
control tryptophan uptake (absence of inhibitor) (4F2hc-IU12 heterodimers; 1 μM tryptophan, 4F2hc-IU12-injected oocytes): 10.2±0.4 pmol/oocyte.h
uptake of [3H]phenylalanine and [3H]tryptophan (4F2hc-IU12 heterodimers): 120 pmol/oocyte.h
Vmax of 4F2hc-IU12 induced transport (4F2hc-IU12 heterodimers): 180±54 pmol/oocyte.h
Km (4F2hc-IU12 heterodimers): 70 µM
inhibition of 4F2hc-IU12 induced 0.1 μM TH (T3) uptake, in words (4F2hc-IU12 heterodimers): significantly inhibited

uptake of [3H]phenylalanine and [3H]tryptophan into Xenopus oocytes (pmol/oocyte.h) [4]: 120
uptake of [125I]T3 and [125I]T4 (0.1 µM) into Xenopus oocytes (times over control (T3)) [4]: 2.7
Compound: Xenopus laevis IU12 light-chain (lc) permease
